What all share (type): in vivo, male Sprague-Dawley rats
Test [1] deals with animal experimental model of diabetic nephropathy (rats with streptozotocin-induced diabetes mellitus). The test is described as follows: Histopathological examination of the kidneys of streptozotocin-diabetic rats. The note with it: for structural intrarenal changes occurring in diabetic nephropathy: comparison of the treatment groups; for glomerular hypertrophy (enlargement of the glomeruli): mean of 20 microscopically measured areas, S-sulpiride 25 mg/kg/d, D3-A1 5 mg/kg/d. How it is done:
(§1) 60 mg/kg of streptozotocin, dissolved in citrate buffer (21 mg of citric acid per 1 ml of double-distilled water), were injected intraperitoneally into male Sprague-Dawley rats having a body weight of 180 to 200 g. Diabetes mellitus was regarded as being induced successfully when an evening glucose concentration of at least 180 mg/dl was found in the venous blood after 24 hours. The blood glucose values of the diabetic animals were between 350 and 450 mg/dl. Insulin substitution was thus not necessary. The body weight of the experimental animals increased about 5 g per day. The same volume of citrate buffer was injected intraperitoneally into nondiabetic time control animals (CON). They had blood glucose values of between 90 and 1120 mg/dl.
(§2) Immediately after successful determination of diabetes mellitus, the animals were accommodated in normal cages with standard feed (Altromin 1320) and mains water ad libitum. By means of different medicinal treatment (administration of the substances via the drinking water), the following four experimental groups were formed: • CON (1) nondiabetic animals without additional treatment (time control) • DM-VHC (2) diabetic animals without additional treatment (diabetic control) • DM-SUL (3) diabetic animals with S-sulpiride treatment (25 mg/kg/d) • DM-D3 (4) diabetic animals with D3-A treatment (D3-A1: D3 receptor antagonist according to Example (7) (5 mg/kg/d); D3-A2: D3 receptor antagonist according to Example (11))
(§3) The volume of liquid absorbed was recorded daily. Every third day, the body weight and the blood glucose level of the animals were determined. After 12 days, the experimental animals were kept in metabolic cages for 24 hours for urine collection. The protein concentration in the urine was determined according to the standard method described by Lowry. For this, after incubation of the samples with 1 M NaOH a color reaction was induced with Folin reagent (phenol-Ciocalteu's), whose intensity was quantified photometrically. The albumin concentration in the urine was determined by a radioimmunoassay (RIA) specific for albumin. A kit from Biermann (KHAD 2: albumin RIA), was employed which used a polyclonal antibody against human serum albumin (goat) and ^125I-labeled human serum albumin as a tracer. After 14 to 16 days, the animals were anesthetized with thiopental (80 mg/kg) and polyethylene catheters were placed in the jugular vein and the carotid artery and also in the urinary bladder. The glomerular filtration rate (GFR) was determined by means of the renal ^3H-inulin clearance. The mean arterial blood pressure (MAP) and the heart rate (HR) were furthermore recorded during the experiment. At the end of the clearance experiments, the kidneys were removed and subjected to a histopathological examination.

Test [2] has the same test system. The experiment in a line: Clearance investigation (renal 3H-inulin clearance, GFR) in anesthetized streptozotocin-diabetic rats. To be noted: for glomerular filtration rate (GFR): anesthetized diabetic rats after 14 to 16 days, 3H-inulin clearance, S-sulpiride 25 mg/kg/d, D3-A 5 mg/kg/d, untreated diabetic 1.10 vs. time control 0.83. How it is done:
(§4) The action of the dopamine D3 antagonists was investigated in an animal experimental model of diabetic nephropathy. Rats in which diabetes mellitus had been induced by administration of streptozotocin developed marked glomerular hyperfiltration within 14 days.
as §1, §2, §3

Test [3] shares this test system. The experiment in a line: 24-hour urine collection (protein by Lowry, albumin by RIA) in streptozotocin-diabetic rats. To be noted: for albuminuria / proteinuria: 24-hour urine of conscious diabetic rats after 12 days, via drinking water, S-sulpiride 25 mg/kg/d, D3-A1 5 mg/kg/d; for albuminuria: untreated diabetic 118 vs. time control 23; for proteinuria: untreated diabetic 133 vs. time control 46. As to the method: as §4, §1, §2, §3

Test [4] shares this test system. The test is described as follows: Kidney wet weight of streptozotocin-diabetic rats. As to the method:
as §1, with “[…]. […]” for “1120 mg/dl.”
The volume of liquid absorbed was recorded daily. Every third day, the body weight and the blood glucose level of the animals were determined. […] The protein concentration in the urine was determined according to the standard method described by Lowry. For this, after incubation of the samples with 1 M NaOH a color reaction was induced with Folin reagent (phenol-Ciocalteu's), whose intensity was quantified photometrically. The albumin concentration in the urine was determined by a radioimmunoassay (RIA) specific for albumin. […] The glomerular filtration rate (GFR) was determined by means of the renal ^3H-inulin clearance. […]

[5] abbreviates: diabetic rats, subchronic treatment.
Where [6] appears, read: diabetic rats, subchronic treatment, 30 mg/kg body weight per day.

For the molecule `CCN1CCC[C@H]1CNC(=O)c1cc(S(N)(=O)=O)ccc1OC` [sulpiride, S-sulpiride, reference compound], in test [1], the “structural intrarenal changes occurring in diabetic nephropathy” value (“structural intrarenal changes occurring” below) is recorded as “not” and the “glomerular hypertrophy (enlargement of the glomeruli)” value is “likewise to be observed”. The “glomerular filtration rate (GFR)” value in test [2] came to 0.71 mL/min. The “renal hemodynamic changes in the course of diabetic nephropathy” value in test [2] (setting [5]) is reported as “significant decrease”. Besides, in test [3], the albuminuria amounted to 101 µg/day and the proteinuria turned out to be 178 mg/day.

With `CC(=CCN1CCN(c2cc(C(F)(F)F)nc(C(C)(C)C)n2)CC1)CSc1nnc(N)n1C` [Example 7], in test [1], the “structural intrarenal changes occurring” value is “abolished” and the “glomerular hypertrophy (enlargement of the glomeruli)” value was “not”. Also, the “glomerular filtration rate (GFR)” value in test [2] came to 0.83 mL/min. Further, in test [2] (setting [5]), the “renal hemodynamic changes in the course of diabetic nephropathy” value is “significant decrease”. In test [3], this molecule registered an albuminuria of 18 µg/day and a proteinuria of 113 mg/day. Also, the “pathological protein and albumin excretion” value in test [3] (diabetic rats, comparison of the treatment groups) is reported as “markedly reduced”.

With `CC(C)(C)c1nc(N2CCN(CCCSc3nccc(O)n3)CC2)cc(C(F)(F)F)n1.O=C(O)/C=C/C(=O)O` [Example 11, 2-(3-(4-(2-t-Butyl-6-trifluoromethyl)pyrimidin-4-yl)piperazin-1-yl)propylmercaptopyrimidin-4-ol fumarate], the kidney wet weight in test [4] (diabetic rats treated with D3-A2, nondiabetic 0.9±0.1, DM-VHC 1.1+0.04) was 0.96+0.03 g per 100 g body weight. Moreover, in test [4] (setting [6]), the incipient renal hypertrophy result was “distinct reduction”. Also, the “structural intrarenal changes occurring” value in test [1] is listed as “abolished”. In addition, in test [2] (setting [6]), the diabetes-induced renal hyperperfusion entry is given as “distinctly reduced” and the glomerular hyperfiltration entry is “distinctly reduced”.

The values are drawn from patent US8785447B2, “Use of dopamine D3 receptor ligands for the production of drugs for treating renal function disorders” (AbbVie Deutschland GmbH & Co. KG, priority 2000, dated 2014).
